# Tests used:
# [1] = molecular target: T1, Amine oxidase [flavin-containing] A (Mus musculus, UniProt Q64133); assay: Inhibition of mouse brain MAOA
# T1 sequence (Q64133 whole entry): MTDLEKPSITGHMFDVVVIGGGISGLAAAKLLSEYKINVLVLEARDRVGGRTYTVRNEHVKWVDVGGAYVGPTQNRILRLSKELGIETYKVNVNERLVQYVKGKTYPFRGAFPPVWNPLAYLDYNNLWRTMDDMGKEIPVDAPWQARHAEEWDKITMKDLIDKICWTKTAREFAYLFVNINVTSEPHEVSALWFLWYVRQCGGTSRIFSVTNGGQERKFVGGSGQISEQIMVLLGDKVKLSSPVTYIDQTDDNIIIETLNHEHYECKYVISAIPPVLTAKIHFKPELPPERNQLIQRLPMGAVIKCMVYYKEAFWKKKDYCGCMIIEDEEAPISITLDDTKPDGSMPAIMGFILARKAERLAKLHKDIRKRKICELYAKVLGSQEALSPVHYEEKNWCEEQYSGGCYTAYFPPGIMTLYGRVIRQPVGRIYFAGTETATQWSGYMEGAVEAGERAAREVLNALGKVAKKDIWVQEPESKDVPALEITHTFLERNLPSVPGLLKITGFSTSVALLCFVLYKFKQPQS
# [2] = molecular target: T2, Amine oxidase [flavin-containing] B (Mus musculus, UniProt Q8BW75); assay: Inhibition of mouse brain MAOB
# T2 sequence (Q8BW75 whole entry): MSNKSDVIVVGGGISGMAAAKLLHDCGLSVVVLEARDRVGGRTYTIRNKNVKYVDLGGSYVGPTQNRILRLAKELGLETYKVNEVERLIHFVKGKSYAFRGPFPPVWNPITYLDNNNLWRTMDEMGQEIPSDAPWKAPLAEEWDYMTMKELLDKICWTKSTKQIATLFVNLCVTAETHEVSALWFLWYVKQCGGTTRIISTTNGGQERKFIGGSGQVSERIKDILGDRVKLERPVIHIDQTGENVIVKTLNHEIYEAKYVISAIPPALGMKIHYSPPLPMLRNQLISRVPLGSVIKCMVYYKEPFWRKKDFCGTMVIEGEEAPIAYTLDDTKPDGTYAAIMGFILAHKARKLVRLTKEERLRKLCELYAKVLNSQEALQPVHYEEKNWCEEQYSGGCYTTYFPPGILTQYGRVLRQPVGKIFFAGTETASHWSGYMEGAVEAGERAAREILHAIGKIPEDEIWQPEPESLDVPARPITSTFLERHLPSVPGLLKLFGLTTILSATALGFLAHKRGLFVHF
# [3] = molecular target: T3, Amine oxidase [flavin-containing] B (Rattus norvegicus, UniProt P19643); assay: Inhibition of MAOB in rat brain mitochondria
# T3 sequence (P19643 whole entry): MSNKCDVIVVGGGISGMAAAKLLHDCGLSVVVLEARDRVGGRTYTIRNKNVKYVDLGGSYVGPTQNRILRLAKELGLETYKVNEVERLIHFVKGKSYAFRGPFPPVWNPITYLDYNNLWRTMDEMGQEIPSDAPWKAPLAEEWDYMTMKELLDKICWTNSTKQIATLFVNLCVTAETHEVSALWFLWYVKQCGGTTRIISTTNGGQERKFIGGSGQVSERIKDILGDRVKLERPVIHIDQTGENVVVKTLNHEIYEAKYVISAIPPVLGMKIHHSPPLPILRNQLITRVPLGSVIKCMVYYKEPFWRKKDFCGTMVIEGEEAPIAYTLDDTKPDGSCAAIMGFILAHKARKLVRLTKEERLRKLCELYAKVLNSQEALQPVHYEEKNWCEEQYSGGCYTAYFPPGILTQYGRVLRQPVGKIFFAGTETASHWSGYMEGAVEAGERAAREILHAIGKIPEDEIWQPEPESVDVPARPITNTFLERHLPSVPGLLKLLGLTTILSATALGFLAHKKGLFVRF
# [4] = molecular target: T4, Amine oxidase [flavin-containing] A (Rattus norvegicus, UniProt P21396); assay: Inhibition of MAOA in rat brain mitochondria
# T4 sequence (P21396 whole entry): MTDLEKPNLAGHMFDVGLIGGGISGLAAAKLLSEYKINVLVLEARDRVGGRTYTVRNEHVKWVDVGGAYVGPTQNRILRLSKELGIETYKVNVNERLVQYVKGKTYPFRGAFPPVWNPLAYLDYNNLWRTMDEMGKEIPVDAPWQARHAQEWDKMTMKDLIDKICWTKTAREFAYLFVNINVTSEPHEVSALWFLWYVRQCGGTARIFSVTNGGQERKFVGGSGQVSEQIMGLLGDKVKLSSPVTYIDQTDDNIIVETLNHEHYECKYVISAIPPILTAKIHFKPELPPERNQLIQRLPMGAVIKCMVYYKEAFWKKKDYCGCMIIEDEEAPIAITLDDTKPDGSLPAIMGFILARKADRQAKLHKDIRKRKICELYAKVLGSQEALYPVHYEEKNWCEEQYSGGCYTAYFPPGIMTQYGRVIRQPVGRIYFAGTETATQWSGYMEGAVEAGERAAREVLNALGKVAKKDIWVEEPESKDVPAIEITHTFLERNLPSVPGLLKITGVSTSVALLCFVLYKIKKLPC
smiles,measurement,setting,value
COC(=O)/C=C/C=C/c1ccc2c(c1)OCO2 [METHYL PIPERATE],Ki,[1],27.1 µM
same,Ki,[2],1600 nM
O=C(/C=C/C=C/c1ccc2c(c1)OCO2)N1CCCCC1 [PIPERINE],Ki,[3],91.3 µM
same,Ki,[1],19 µM
same,Ki,[4],49.3 µM
same,Ki,[2],3190 nM

# Reference: ChEMBL document CHEMBL1153203, “Proposed structural basis of interaction of piperine and related compounds with monoamine oxidases” (Bioorg Med Chem Lett, 2010)
